Results: paper PMC11062894, “Protein-based bandpass filters for controlling cellular signaling with chemical inputs” (Nature Chemical Biology, 2023)
Where “and” joins values, the source holds several entries; their conditions need not be identical. Equal values may be shown once. Entries after “also recorded” stand apart in the source; their conditions may differ. Read-outs that look alike come from different tables or passages of the source.

Experiments:
LD3 [1] = assay: SPR assay for protein–protein binding affinities (drug receptor variants over immobilized LD3); set-up: unit not given here; conditions: Supp Fig 6a
Experimental: SPR measurements were performed on a Biacore 8K device (GE Healthcare). The mutual designed binder (LD3) was immobilized on a CM5 chip (GE Life Science) as a ligand with the concentration at 5 μg ml^−1 for 120 s contact time in pH 4.5 sodium acetate solutions. Serial dilutions of the analytes (BclXL or Bcl2 and their variants) in HBS-EP buffer (10 mM HEPES, 150 mM NaCl, 3 mM EDTA and 0.005% surfactant P20; GE Life Science) were flowed over the immobilized chips. After each injection cycle, surface regeneration was performed using 10 mM NaOH (pH 11.95). Affinities (Kd) were obtained using a steady binding model of the equilibrium model with Biacore 8K evaluation software. […]
Dissociation constant measurement of BclXLhigh-v(1-3) and LD3. Equilibrium curves are fitted using
BclXLhigh-v1 (purple), BclXLhigh-v2 (blue), […]
Supplementary Figure 6: Binding affinities and drug resistances of Bcl2high-v(2,4,5) assessed by
a) Measurement of dissociation constants for Bcl2high-v(2,4,5) and LD3 interactions. Equilibrium curves
(§1) Bcl2high-v(2,4,5) measured by SPR. 5 μM of Bcl2 or indicated variants were mixed with 10 μM of […]

[2] = test system: GEMS receptors with CBPvene (Bcl2–LD3 and Bcl2high variants), STAT3-driven SEAP in HEK293T cells; assay: GEMS SEAP reporter assay, CBPvene (Bcl2high, LD3-v and Bcl2-v variants) with venetoclax; type: cell-based; conditions: Supp Fig 5c; for behavior of Bcl2high variants screened in CBP constructs: venetoclax exceeding 100 nM
LD3 [3] = assay: SPR drug sensitivity of drug receptor variants (5 µM analyte mixed with 10 µM inhibitor, LD3 immobilized chip); type: binding; conditions: for drug resistance to venetoclax (binding response to LD3): 5 µM Bcl2 or variant + 10 µM Venetoclax
Experimental: Drug IC50 values for disrupting heterodimers were measured on a Biacore 8K device. A 5 µM portion of analyte was mixed with 10 µM of BclXL or Bcl2 inhibitors according to the analyte. The mixtures of analyte and drug were injected onto the LD3 immobilized channel. […]
as §1

[4] = test system: GEMS receptors with CBPnavi (BclXL–LD3 and Bcl2), STAT3-driven SEAP in HEK293T cells; assay: GEMS SEAP reporter assay, CBPnavi; type: cell-based
Experimental: HEK293T cells were seeded in a 96-well plate 24 h before transfection. The transfection mix in each well consisted of 3 ng of constitutive human CMV promoter driven mammalian STAT3 expression vector (PhCMV-STAT3-pA), 30 ng of STAT3-induced reporter expression (OStat3-PhCMVmin-SEAP-pA) and 50 ng of expression vectors for each GEMS receptor chain (PSV40-IgK-(drughigh receptor)-EpoRm-IL-6RBm-pA and PSV40-IgK-(druglow receptor-GGGGSX3-LD3)-EpoRm-IL-6RBm-pA). For the specific drughigh receptor and druglow receptor used in the different cellular assays, they are indicated as wild type or with mutations. […] For drug treatment experiments, drugs were added 12 h post-transfection and incubated with cells for 24 h before the SEAP reporter detection assay.
Binding affinities of SPR drug competition assays were calculated using three-parameter nonlinear regression in GraphPad Prism (v.8.3.0). Representative data of cell assays are presented as individual values and mean values (bars). n = 3 refers to biological replicates. All IC50 or EC50 values of cell assays reported were calculated using four-parameter nonlinear regression ± s.d. Bandpass features of cutoff concentrations and Bandwidth90% were estimated based on the curve fitted using bell-shaped curve nonlinear regression in GraphPad Prism (v.8.3.0).

[5] = target: GEMS receptors with BclXL:LD3 in HEK293T cells (Homo sapiens, UniProt Q07817); type: cell-based
Chain of GEMS receptors with BclXL:LD3 in HEK293T cells (Q07817 whole entry): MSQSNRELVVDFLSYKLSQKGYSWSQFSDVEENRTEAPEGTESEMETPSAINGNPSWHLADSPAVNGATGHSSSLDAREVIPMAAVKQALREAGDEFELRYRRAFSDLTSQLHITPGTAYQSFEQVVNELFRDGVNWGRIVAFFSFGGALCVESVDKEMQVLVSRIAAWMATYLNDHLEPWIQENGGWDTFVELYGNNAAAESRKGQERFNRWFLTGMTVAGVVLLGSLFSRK
Experimental: HEK293T cells were seeded in a 96-well plate 24 h before transfection. The transfection mix in each well consisted of 3 ng of constitutive human CMV promoter driven mammalian STAT3 expression vector (PhCMV-STAT3-pA), 30 ng of STAT3-induced reporter expression (OStat3-PhCMVmin-SEAP-pA) and 50 ng of expression vectors for each GEMS receptor chain (PSV40-IgK-(drughigh receptor)-EpoRm-IL-6RBm-pA and PSV40-IgK-(druglow receptor-GGGGSX3-LD3)-EpoRm-IL-6RBm-pA). For the specific drughigh receptor and druglow receptor used in the different cellular assays, they are indicated as wild type or with mutations. Then, plasmid DNA was mixed with 50 μl opti-MEM (Thermo Fisher) and 600 ng of polyethyleneimine (Polysciences, catalog no. 24765-1). […]
(§2) SEAP activity (U l^−1) in cell culture supernatants was quantified by kinetic measurements at 405 nm (1 minute per measurement for 30 cycles) of absorbance increase due to phosphatase-mediated hydrolysis of para-nitrophenyl phosphate (pNPP). […]
production of HEK293T cells. […] SEAP quantifications were performed to measure the protein production and WST-8 was used to test the cell proliferation. For cell proliferation assay, WST-8 was added after 24 hours of drug incubation, and measured its absorbance at 450 nm 4 hours later. […]

[6] = target: GEMS receptors with Bcl2:LD3 in HEK293T cells (Homo sapiens, UniProt P10415); assay: GEMS SEAP reporter assay, Bcl2:LD3 complex disruption; type: cell-based; set-up: key: SEAP activity in U/L; conditions: Supp Fig 3a
Chain of GEMS receptors with Bcl2:LD3 in HEK293T cells (P10415 whole entry): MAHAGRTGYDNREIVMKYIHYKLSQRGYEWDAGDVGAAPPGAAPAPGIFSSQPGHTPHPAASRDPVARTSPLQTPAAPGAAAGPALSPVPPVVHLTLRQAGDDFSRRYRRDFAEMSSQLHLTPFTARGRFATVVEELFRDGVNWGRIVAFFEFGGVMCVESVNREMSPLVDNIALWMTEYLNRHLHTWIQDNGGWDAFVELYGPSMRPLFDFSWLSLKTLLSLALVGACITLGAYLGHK
Experimental: HEK293T cells were seeded in a 96-well plate 24 h before transfection. The transfection mix in each well consisted of 3 ng of constitutive human CMV promoter driven mammalian STAT3 expression vector (PhCMV-STAT3-pA), 30 ng of STAT3-induced reporter expression (OStat3-PhCMVmin-SEAP-pA) and 50 ng of expression vectors for each GEMS receptor chain (PSV40-IgK-(drughigh receptor)-EpoRm-IL-6RBm-pA and PSV40-IgK-(druglow receptor-GGGGSX3-LD3)-EpoRm-IL-6RBm-pA). For the specific drughigh receptor and druglow receptor used in the different cellular assays, they are indicated as wild type or with mutations. Then, plasmid DNA was mixed with 50 μl opti-MEM (Thermo Fisher) and 600 ng of polyethyleneimine (Polysciences, catalog no. 24765-1). For drug treatment experiments, drugs were added 12 h post-transfection and incubated with cells for 24 h before the SEAP reporter detection assay.
as §2

Molecule | SPR equilibrium binding response to LD3 (LD3 [1]; head: Venetoclax (nM) 1) | SEAP, screening of Bcl2high variants (raw) ([2]; Venetoclax 0) | SEAP, screening of Bcl2high variants, Normalized ([2]; Venetoclax 0) | SEAP, screening of Bcl2high variants (raw) ([2]; Venetoclax 0.0001) | SEAP, screening of Bcl2high variants, Normalized ([2]; Venetoclax 0.0001) | SEAP, screening of Bcl2high variants (raw) ([2]; Venetoclax 0.001) | SEAP, screening of Bcl2high variants, Normalized ([2]; Venetoclax 0.001) | SEAP, screening of Bcl2high variants (raw) ([2]; Venetoclax 0.01) | SEAP, screening of Bcl2high variants, Normalized ([2]; Venetoclax 0.01) | SEAP, screening of Bcl2high variants (raw) ([2]; Venetoclax 0.1) | SEAP, screening of Bcl2high variants, Normalized ([2]; Venetoclax 0.1) | SEAP, screening of Bcl2high variants (raw) ([2]; Venetoclax 1) | SEAP, screening of Bcl2high variants, Normalized ([2]; Venetoclax 1) | SEAP, screening of Bcl2high variants (raw) ([2]; Venetoclax 10) | SEAP, screening of Bcl2high variants, Normalized ([2]; Venetoclax 10) | SEAP, screening of Bcl2high variants (raw) ([2]; Venetoclax 100) | SEAP, screening of Bcl2high variants, Normalized ([2]; Venetoclax 100) | SEAP, screening of Bcl2high variants (raw) ([2]; Venetoclax 1000) | SEAP, screening of Bcl2high variants, Normalized ([2]; Venetoclax 1000) | drug resistance to venetoclax (binding response to LD3) (LD3 [3]) | also measured
Bcl2high-v5: Bcl2 variant (D103Y) | 0.849 | 2.765 | 3.49 | 2.523 | 2.743 | 3.266 | 5.042 | 2.791 | 3.572 | 1.758 | 0.3721 | 1.638 | 0 | 7.093 | 16.9022 | 33.9111 | 100 | 29.4352 | 86.1311 | intermediate binding responses | SPR equilibrium binding response to LD3 (LD3 [1]; head: Venetoclax (nM) 3.9): 3.873; SPR equilibrium binding response to LD3 (LD3 [1]; head: Venetoclax (nM) 15.6): 14.2982; SPR equilibrium binding response to LD3 (LD3 [1]; head: Venetoclax (nM) 62.5): 37.6477; behavior of Bcl2high variants screened in CBP constructs [2]: sharp decrease
CC1(C)CCC(c2ccc(Cl)cc2)=C(CN2CCN(c3ccc(C(=O)NS(=O)(=O)c4ccc(N[C@H](CCN5CCOCC5)CSc5ccccc5)c(S(=O)(=O)C(F)(F)F)c4)cc3)CC2)C1 [Navitoclax] |  |  |  |  |  |  |  |  |  |  |  |  |  |  |  |  |  |  |  |  | Dip (bell-shaped fit, best-fit value) ([4]; CBPnavi, Fig 3c): 146.8; Plateau1 (bell-shaped fit, best-fit value) ([4]; CBPnavi, Fig 3c): 13.3; Plateau2 (bell-shaped fit, best-fit value) ([4]; CBPnavi, Fig 3c): 20.77; nH1 (bell-shaped fit, best-fit value) ([4]; CBPnavi, Fig 3c): -2.607; nH2 (bell-shaped fit, best-fit value) ([4]; CBPnavi, Fig 3c): -2.347; EC50 ([4]; Homo sapiens, HEK-293T, read-out: EC50_1 (bell-shaped fit, best-fit value)): 66.5 nM; EC50 ([4]; Homo sapiens, HEK-293T, read-out: EC50_2 (bell-shaped fit, best-fit value)): 2850 nM; EC50 ([4]; Homo sapiens, HEK-293T, read-out: EC50 of the ON phase): 65 nM; IC50 ([4]; Homo sapiens, HEK-293T, read-out: IC50 of the OFF phase): 2820 nM; more potent activity to BclXL than to Bcl2 [5]: approximately 4.4 fold; dose response (SEAP) ([6]; Navitoclax 1 nM): 217.89 and 244.414 and 201.569; dose response (SEAP) ([6]; Navitoclax 3.18 nM): 251.97 and 247.153 and 223.02; dose response (SEAP) ([6]; Navitoclax 10 nM): 225.391 and 249.837 and 220.973; dose response (SEAP) ([6]; Navitoclax 31.8 nM): 203.543 and 185.176 and 172.987; dose response (SEAP) ([6]; Navitoclax 100 nM): 207.157 and 228.932 and 148.919; dose response (SEAP) ([6]; Navitoclax 318 nM): 189.257 and 207.554 and 159.852; dose response (SEAP) ([6]; Navitoclax 1000 nM): 160.635 and 174.477 and 98.5023; dose response (SEAP) ([6]; Navitoclax 3180 nM): 138.28 and 140.892 and 97.3043; dose response (SEAP) ([6]; Navitoclax 10000 nM): 109.056 and 131.507 and 65.8832
Bcl2: wild-type Bcl2, druglow receptor |  |  |  |  |  |  |  |  |  |  |  |  |  |  |  |  |  |  |  | completely inhibited | 
Bcl2high-v4: Bcl2 variant (G101V) | 2.1472 | 6.603 | 2.711 | 4.145 | 0 | 8.202 | 4.476 | 7.174 | 3.342 | 7.666 | 3.884 | 5.264 | 1.235 | 24.5053 | 22.4596 | 94.7979 | 100 | 68.7379 | 71.253 | intermediate binding responses; also recorded: more resistant than Bcl2high-v2 | SPR equilibrium binding response to LD3 (LD3 [1]; head: Venetoclax (nM) 3.9): 10.112; SPR equilibrium binding response to LD3 (LD3 [1]; head: Venetoclax (nM) 15.6): 33.8883; SPR equilibrium binding response to LD3 (LD3 [1]; head: Venetoclax (nM) 62.5): 70.0059; behavior of Bcl2high variants screened in CBP constructs [2]: sharp decrease
Bcl2high-v7: Bcl2 variant (D103E) |  | 6.691 | 0 | 7.426 | 0.7213 | 7.62 | 0.9112 | 12.5658 | 5.763 | 10.093 | 3.337 | 14.5573 | 7.717 | 26.197 | 19.1352 | 97.9682 | 89.5427 | 108.628 | 100 |  | 
BclXL: wild-type BclXL, druglow receptor |  |  |  |  |  |  |  |  |  |  |  |  |  |  |  |  |  |  |  |  | drug resistance to A-1155463 (binding response to LD3) (LD3 [3]; 5 µM BclXL or variant + 10 µM A-1155463): completely inhibited
